Source: patent publication US9814801B2, “Thiol-ene polymerization with vinylesters and vinylcarbonate” (Depuy Synthes Products, Inc., priority 2011, dated 2017)

Experiments:
fibroblast cell culture = assay: Monomer cytotoxicity, Alamar Blue Assay in fibroblast cell culture; conditions: monomer concentration at which resorufin production was reduced to 50% of control, n=3
Excerpt: This assay incorporated a fluorometric/colormetric growth indicator based on detection of metabolic activity.

[1] = Photoreactivity by photo-DSC: time to reach the maximum of the polymerization heat; type: physicochemical
Method: The compositions which are embodiments of the present invention were compared to acrylate and methacrylate based polymer systems as comparative examples.
The reactivity towards photopolymerization was tested with the help of photo-DSC (differential scanning calorimetry). The measurements were carried out using 2 wt % of 2-hydroxy-1-[4-(2-hydroxyethoxy)phenyl]-2-methyl-1-propanone (Irgacure 2959, Ciba SC) as photoinitiator.

in vitro = assay: in vitro
Method: (§1) The effects of each of vinyl ester 4V, acrylate 4A, and meth-acrylate 4M on osteoblastic MC3T3-E1 cells in vitro was tested by the MTT assay method. The osteoblastic MC3T3-E1 cells were cultured for five days in the presence of each of vinyl ester (4V), acrylate (4A), and meth-acrylate (4M).
(§2) Cytotoxicity of the newly synthesized monomers and the reference substances together with the thiols and photoinitiator used was examined in osteoblast cell culture by using an Alamar Blue Assay. This assay incorporates a fluorometric/colormetric growth indicator based on the detection of metabolic activity. 1M solutions of the monomers, thiols, and photoinitiator in DMSO (HYBRI-MAX®, Sigma) were prepared. […] For experiments, cells [osteoblasts taken of the strain C57BL/6 of mus musculus (ATCC Catalog No. CRL-2593, MC3T3-E1, Subclone 4)] were cultured in 100 μl DMEM Medium supplemented with 10% FCS, 100 U/ml Penicillin, and 100 μg/ml Streptomycin, in 96-well plates at a density of 6.4×10^3 cells well^−1 for 24 hours in humidified air (95% relative humidity) with 5% CO2 at 37° C. The next day, the cells were treated with 100 μL of the different concentrations of the monomers for 5 days in triplicates. 10 μL of resazurin were added and the cells incubated for 4 hours at 37° C. The fluorescence intensity was measured for excitation at 530 nm and emission at 580 nm and compared to untreated cells (cells+medium). As control groups cells treated with 1% DMSO-solution, a blank value, and PBS-puffer were used.

[2] = tested on: osteoblastic MC3T3-E1 cells; assay: in vitro; conditions: read-out: LC50; MC3T3-E1 cells cultured five days with monomer; n=3
Method: as §1, §2

[3] = PEG600 monomer series, 0% TMP700
[4] = PEG600 monomer series, 10% TMP700
[5] = PEG600 monomer series, 20% TMP700
[6] = PEG600 monomer series, 40% TMP700
[7] = PEG200 monomer series, 0% TMP700
[8] = PEG200 monomer series, 10% TMP700
[9] = PEG200 monomer series, 20% TMP700
[10] = PEG200 monomer series, 40% TMP700
[11] = Butanediol monomer series, 0% TMP700
[12] = Butanediol monomer series, 0% TT
[13] = Butanediol monomer series, 10% TMP700
[14] = Butanediol monomer series, 10% TT
[15] = Butanediol monomer series, 20% TMP700
[16] = Butanediol monomer series, 20% TT
[17] = Butanediol monomer series, 40% TMP700
[18] = Butanediol monomer series, 40% TT

Row | Molecule | IC50 [mM] (TC50 values of various monomers) (fibroblast cell culture) | time to reach the maximum of the polymerization heat [1, 11] | time to reach the maximum of the polymerization heat [1, 12] | time to reach the maximum of the polymerization heat [1, 13] | time to reach the maximum of the polymerization heat [1, 14] | time to reach the maximum of the polymerization heat [1, 15] | time to reach the maximum of the polymerization heat [1, 16] | time to reach the maximum of the polymerization heat [1, 17] | time to reach the maximum of the polymerization heat [1, 18] | other results
1 | C=COC(=O)COCCOCCOCC(=O)OC=C [TUVE, ω,ω′-3,6,9-trioxaundecanedioic acid divinyl ester] | 2.5 mM |  |  |  |  |  |  |  |  | 
2 | Poly(ethylene glycol) diacrylate, MG 600 [PEG600 Acrylate] |  |  |  |  |  |  |  |  |  | time to reach the maximum of the polymerization heat [1, 3]: 3.2 s; time to reach the maximum of the polymerization heat ([1]; PEG600 monomer series, 0% TT): 3.2 s; time to reach the maximum of the polymerization heat [1, 4]: 3.8 s; time to reach the maximum of the polymerization heat ([1]; PEG600 monomer series, 10% TT): 3.2 s; time to reach the maximum of the polymerization heat [1, 5]: 3.7 s; time to reach the maximum of the polymerization heat ([1]; PEG600 monomer series, 20% TT): 3.0 s; time to reach the maximum of the polymerization heat [1, 6]: 3.2 s; time to reach the maximum of the polymerization heat ([1]; PEG600 monomer series, 40% TT): 3.0 s
3 | C=CC(=O)OCCOCCOCCOCCOC(=O)C=C [TTEGDAc, Tetra(ethylene glycol) diacrylate] | <0.16 mM |  |  |  |  |  |  |  |  | time to reach the maximum of the polymerization heat [1, 7]: 2.6 s; time to reach the maximum of the polymerization heat ([1]; PEG200 monomer series, 0% TT): 2.6 s; time to reach the maximum of the polymerization heat [1, 8]: 3.6 s; time to reach the maximum of the polymerization heat ([1]; PEG200 monomer series, 10% TT): 3.5 s; time to reach the maximum of the polymerization heat [1, 9]: 3.6 s; time to reach the maximum of the polymerization heat ([1]; PEG200 monomer series, 20% TT): 3.3 s; time to reach the maximum of the polymerization heat [1, 10]: 3.4 s; time to reach the maximum of the polymerization heat ([1]; PEG200 monomer series, 40% TT): 3.3 s
4 | Poly(ethylene glycol) dimethacrylate, MG 600 [PEG600 Methacrylate] |  |  |  |  |  |  |  |  |  | time to reach the maximum of the polymerization heat [1, 3]: 10.5 s; time to reach the maximum of the polymerization heat ([1]; PEG600 monomer series, 0% TT): 10.5 s; time to reach the maximum of the polymerization heat [1, 4]: 27.0 s; time to reach the maximum of the polymerization heat ([1]; PEG600 monomer series, 10% TT): 26.3 s; time to reach the maximum of the polymerization heat [1, 5]: 31.2 s; time to reach the maximum of the polymerization heat ([1]; PEG600 monomer series, 20% TT): 31.2 s; time to reach the maximum of the polymerization heat [1, 6]: 30.6 s; time to reach the maximum of the polymerization heat ([1]; PEG600 monomer series, 40% TT): 24.9 s
5 | C=C(C)C(=O)OCCCCOC(=O)C(=C)C [Butanediol Methacrylate, 1,4-Butanediol di-methacrylat] |  | 28.6 s | 28.6 s | 90.2 s | 87.6 s | 85.4 s | 83.8 s | 75.0 s | 55.0 s | CC50 (in vitro): 1300 µM
6 | C=C(C)C(=O)OCCOCCOCCOCCOC(=O)C(=C)C [TTEGDMA, Tetra(ethylene glycol) dimethacrylate] | <0.16 mM |  |  |  |  |  |  |  |  | time to reach the maximum of the polymerization heat [1, 7]: 12.6 s; time to reach the maximum of the polymerization heat ([1]; PEG200 monomer series, 0% TT): 12.6 s; time to reach the maximum of the polymerization heat [1, 8]: 56.0 s; time to reach the maximum of the polymerization heat ([1]; PEG200 monomer series, 10% TT): 51.5 s; time to reach the maximum of the polymerization heat [1, 9]: 55.1 s; time to reach the maximum of the polymerization heat ([1]; PEG200 monomer series, 20% TT): 58.3 s; time to reach the maximum of the polymerization heat [1, 10]: 46.9 s; time to reach the maximum of the polymerization heat ([1]; PEG200 monomer series, 40% TT): 54.0 s
7 | O=C(CCS)OCC(COC(=O)CCS)(COC(=O)CCS)COC(=O)CCS [PTM, pentaerythritol tetra(3-mercaptopropionate)] | 10 mM |  |  |  |  |  |  |  |  | CC50 at 5 days (in vitro; C57BL/6, mouse, osteoblastic MC3T3-E1 cells (Subclone 4, ATCC CRL-2593)): > 10000 µM
8 | C=COC(=O)OCCCCOC(=O)OC=C [Butanediol Vinyl carbonate, 1,4-butanediol divinyl carbonate] |  | 3.3 s | 3.3 s | 6.1 s | 7.1 s | 4.4 s | 3.0 s | 2.1 s | 2.4 s | 
9 | C=COC(=O)CCCCC(=O)OC=C [AVE, adipic acid divinyl ester] | 10 mM | 4.9 s | 4.9 s | 8.4 s | 7.7 s | 2.9 s | 5.8 s | 2.1 s | 2.1 s | 
10 | C=CC(=O)OCCCCOC(=O)C=C [Butanediol Acrylate, 1,4-Butanediol-di-acrylate] |  | 2.7 s | 2.7 s | 2.9 s | 2.5 s | 3.5 s | 2.8 s | 3.5 s | 2.7 s | CC50 [2]: < 160 µM
